Measured values as given in ChEMBL document CHEMBL2146411, “Discovery of 3H-imidazo[4,5-c]quinolin-4(5H)-ones as potent and selective dipeptidyl peptidase IV (DPP-4) inhibitors” (Bioorg Med Chem, 2012).

Target: Dipeptidyl peptidase 4 (Bos taurus, UniProt P81425)
Sequence (P81425 whole entry): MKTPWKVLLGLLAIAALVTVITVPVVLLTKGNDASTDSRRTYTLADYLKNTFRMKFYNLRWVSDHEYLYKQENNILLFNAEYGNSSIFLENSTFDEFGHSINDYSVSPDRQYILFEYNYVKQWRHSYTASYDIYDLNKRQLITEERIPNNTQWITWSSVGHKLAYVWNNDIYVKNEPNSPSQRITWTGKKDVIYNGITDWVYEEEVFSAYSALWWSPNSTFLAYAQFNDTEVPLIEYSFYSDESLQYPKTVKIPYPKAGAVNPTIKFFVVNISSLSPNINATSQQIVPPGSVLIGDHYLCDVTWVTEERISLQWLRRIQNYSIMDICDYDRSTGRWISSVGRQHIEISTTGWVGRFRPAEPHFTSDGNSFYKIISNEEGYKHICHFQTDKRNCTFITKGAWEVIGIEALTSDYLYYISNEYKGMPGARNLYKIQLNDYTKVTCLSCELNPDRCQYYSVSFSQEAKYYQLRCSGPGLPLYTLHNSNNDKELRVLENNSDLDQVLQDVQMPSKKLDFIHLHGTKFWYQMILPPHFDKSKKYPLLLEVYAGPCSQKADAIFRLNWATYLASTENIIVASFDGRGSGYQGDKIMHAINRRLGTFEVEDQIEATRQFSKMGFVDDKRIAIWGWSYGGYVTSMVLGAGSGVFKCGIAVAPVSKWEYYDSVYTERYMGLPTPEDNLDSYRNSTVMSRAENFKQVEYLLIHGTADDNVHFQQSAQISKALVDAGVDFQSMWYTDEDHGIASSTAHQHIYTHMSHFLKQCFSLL
Description: Inhibition of bovine DPP4 by HTS assay

IC50: 676 nM
SMILES: CC(C)=CCn1c(N2CCNCC2)nc2c1c(=O)[nH]c(=O)n2C
